This is an account of results in patent US20250302815A1, “PROTEIN TYROSINE PHOSPHATASE TARGETING LIGANDS” (CALICO LIFE SCIENCES LLC, priority 2021, published 2025).

Data set [1] relates to MC-38 tumor. The data set is described as follows: syngeneic mouse tumor model, MC-38 tumor growth inhibition. The class given is in vivo. Particulars: MC-38 tumor-bearing mice, mean tumor volume of 10 mice. The source says:
Each point on the curve represents the mean of 10 tumor volume of 10 mice. Error bars depict the standard error of the mean. **=p<0.01.

In data set [2] the target is T1, PTPN2 (HiBIT-PTPN2 in 293T.109 cells) (Homo sapiens, UniProt P17706).
T1 construct: expressed in transfected cells; host or cells: 293T.109 (293T WT from ATCC)
T1 sequence (P17706 1-415): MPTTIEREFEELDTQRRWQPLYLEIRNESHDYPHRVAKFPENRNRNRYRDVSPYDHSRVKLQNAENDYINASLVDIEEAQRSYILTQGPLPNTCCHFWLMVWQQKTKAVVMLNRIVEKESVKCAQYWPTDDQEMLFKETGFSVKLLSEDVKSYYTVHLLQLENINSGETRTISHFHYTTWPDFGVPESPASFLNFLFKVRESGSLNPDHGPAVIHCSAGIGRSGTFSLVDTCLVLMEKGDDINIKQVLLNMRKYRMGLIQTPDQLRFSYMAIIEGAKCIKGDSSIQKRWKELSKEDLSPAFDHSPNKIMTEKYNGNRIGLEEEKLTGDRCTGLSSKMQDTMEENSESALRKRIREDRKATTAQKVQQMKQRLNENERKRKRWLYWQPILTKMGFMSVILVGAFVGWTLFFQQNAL
In words: HiBiT Degradation 293T.109 PTPN2 (Nano-Glo HiBiT Lytic Assay). The class given is cell-based. Particulars: 24.0 hours. The procedure, abridged:
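293T.109 cells with ectopic N-terminal HiBiT-tagged PTPN2 (5000/well) exposed to compounds for 24 h at 37 °C, 5% CO2; 11-point half-log titration from 10 μM top, duplicates. Remaining HiBiT-PTPN2 read as luminescence with Nano-Glo HiBiT lytic reagent, normalised to untreated cells (0%) and reagent-free wells.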

Data set [3] relates to MC-38 murine colon adenocarcinoma tumors. In words: In vivo efficacy in MC38 syngeneic tumor model. Conditions: MC-38 tumor-bearing mice. The method, then:
All experiments were conducted in compliance with AbbVie's Institutional Animal Care and Use Committee and the National Institutes of Health Guide for Care and Use of Laboratory Animals guidelines in a facility accredited by the Association for the Assessment and Accreditation of Laboratory Animal Care. C57Bl/6 female mice were obtained from Charles River (Wilmington, MA). The mice were group-housed 10 per cage. Food and water were available ad libitum. Animals were acclimated to the animal facilities for a period of at least one week prior to commencement of experiments. Animals were tested in the light phase of a 12-hour light: 12-hour dark schedule (lights on 0600 hours).
Cells were grown to passage 3 in vitro. A total of 1×10^5 viable MC-38 cells were inoculated subcutaneously into the right flank of female C57Bl/6 mice (7-12 weeks old) on Day 0. The injection volume was 0.1 mL and was composed of a 1:1 mixture of S-MEM and Matrigel® (Corning, NY, USA). […] The mean tumor volume (TV) at size match was approximately 139±45 mm^3. Following size match, treatments were initiated on the same day. Dosing of mice with Compound 187b (Example 187b) was conducted intravenously, weekly (QW) for 3 weeks. Mice were dosed (10 mg/kg/dose) with either Compound 187b or vehicle controls (n=10 mice/group). Compound 187b was formulated in 5% DMSO+10% PEG400+85% (35% HP-β-CD in water) and was dosed at 5 mL/kg. Anti-PD-1 and isotype antibodies were dosed at 5 mg/kg, […] at 4 day intervals (Q4Dx3). Antibodies were formulated in PBS and dosed at 10 mL/kg. Tumor volume was calculated three times weekly. Measurements of the length (L) and width (W) of the tumor were taken via electronic caliper and the volume was calculated according to the following equation: V=L×W^2/2 using Study Director Version 3.1.399.22 (Study log Systems, Inc, CA, USA). Mice were euthanized when tumor volume was […] or skin ulcerations occurred.

The target in data set [4] is T2, PTPN2 (B16F10.4 cells) (Mus musculus, UniProt Q06180).
T2 construct: HiBiT; host or cells: B16F10.4
T2 sequence (Q06180 1-406): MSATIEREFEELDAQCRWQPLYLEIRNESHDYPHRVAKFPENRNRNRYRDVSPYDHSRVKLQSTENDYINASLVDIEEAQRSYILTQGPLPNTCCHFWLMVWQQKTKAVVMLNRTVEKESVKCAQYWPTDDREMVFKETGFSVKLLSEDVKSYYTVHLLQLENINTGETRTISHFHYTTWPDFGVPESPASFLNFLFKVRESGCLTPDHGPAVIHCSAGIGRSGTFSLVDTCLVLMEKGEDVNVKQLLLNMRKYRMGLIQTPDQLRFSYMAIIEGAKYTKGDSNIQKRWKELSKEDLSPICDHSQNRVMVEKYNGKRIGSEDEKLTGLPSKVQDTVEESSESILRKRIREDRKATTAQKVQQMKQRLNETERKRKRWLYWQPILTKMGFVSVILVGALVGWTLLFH
The data set is described as follows: HiBiT Degradation B16F10.4 PTPN2. The format is cell-based. Conditions: 24.0 hours.

Where [5] appears, read: combination of anti-PD-1 antibody (5 mg/kg) with Compound 187b (10 mg/kg i.v. QWx3).
Setting [6] is: monotherapy, Compound 187b 10 mg/kg intravenously QW for 3 weeks, anti-PD-1 5 mg/kg intraperitoneal every 4 days.

Molecules are shown by their SMILES.

Regarding `CC1(C)C[C@@H](Nc2cccc(-c3sc(C(=O)O)c(OCC(=O)O)c3Cl)c2)CCN1S(=O)(=O)Cc1cccc(NC(=O)N2CCC(c3ccc4c5c(cccc35)C(=O)N4[C@H]3CCC(=O)NC3=O)CC2)c1` (single isomer, unassigned) [Example 187b], the “anticancer and tumor growth inhibition activity in vivo” value is “tumor growth inhibition” in data set [1] (in combination with anti-PD-1 therapy (Q4Dx2)) and “tumor growth inhibition” in data set [1] (monotherapy, QWx3). Moreover, the DC50 in data set [2] and in data set [4] was under 50 nM throughout. For the same compound, in data set [3] (10 mg/kg intravenously QW for 3 weeks), the tolerability entry is recorded as “well tolerated”. Also, the “TGIMax (maximal tumor growth inhibition)” value in data set [3] (setting [5]) is listed as 98%; in data set [3] (setting [6]) it was 75%. In addition, in data set [3] (setting [5]), the mice achieving cures was 90%. Further, the “mice achieving complete cures” value in data set [3] (setting [6]) turned out to be 10%. For the same compound, in data set [3] (within 7-10 days of monotherapy treatment), the tumor response entry was “apparent tumor stasis and shrinkage”.

As to `CC1(C)C[C@@H](Nc2cccc(-c3sc(C(=O)O)c(OCC(=O)O)c3Cl)c2)CCN1S(=O)(=O)Cc1cccc(NC(=O)CCOCCn2cc(CNc3cccc4c3C(=O)N(C3CCC(=O)NC3=O)C4=O)nn2)c1` (stereo partly drawn) [Example 15, 3-(carboxymethoxy)-4-chloro-5-(3-(((4S)-1-((3-(3-(2-(4-(((2-(2,6-dioxopiperidin-3-yl)-1,3-dioxoisoindolin-4-yl)amino)methyl)-1H-1,2,3-triazol-1-yl)ethoxy)propanamido)benzyl)sulfonyl)-2,2-dimethylpiperidin-4-yl)amino)phenyl)thiophene-2-carboxylic acid], the half-maximal degradation concentration (DC50) in data set [2] and in data set [4] was 200 to 1000 nM in each case.

In the case of `Cc1nn(C2CCC(=O)NC2=O)c2ccc(C3CCN(C(=O)Nc4cccc(CS(=O)(=O)N5CC[C@H](Nc6cccc(-c7sc(C(=O)O)c(OCC(=O)O)c7Cl)c6)CC5(C)C)c4)CC3)cc12` (stereo partly drawn) [Example 233, 3-(carboxymethoxy)-4-chloro-5-[3-[[(4S)-1-[[3-[[4-[1-(2,6-dioxo-3-piperidyl)-3-methyl-indazol-5-yl]piperidine-1-carbonyl]amino]phenyl]methylsulfonyl]-2,2-dimethyl-4-piperidyl]amino]phenyl]thiophene-2-carboxylic acid], the half-maximal degradation concentration (DC50) in data set [2] and in data set [4] was 200 to 1000 nM in each case.

Turning to `CC1(C)C[C@@H](Nc2cccc(-c3sc(C(=O)O)c(OCC(=O)O)c3Cl)c2)CCN1S(=O)(=O)Cc1cccc(NC(=O)C2CCN(C(=O)COc3cccc4c3C(=O)N(C3CCC(=O)NC3=O)C4=O)CC2)c1` (stereo partly drawn) [Example 58, 3-(carboxymethoxy)-4-chloro-5-[3-[[(4S)-1-[3-[[1-[2-[[2-(2,6-dioxo-3-piperidyl)-1,3-dioxo-isoindolin-4-yl]oxyacetyl]piperidine-4-carbonyl]amino]phenyl]methylsulfonyl]-2,2-dimethyl-4-piperidyl]amino]phenyl]thiophene-2-carboxylic acid], the 50% degradation concentration (DC50) is 200 to 1000 nM in data set [2] and at least 1000 nM in data set [4].
